Measured values as given in patent publication US20250032460A1, “METHODS OF TREATING NEUROLOGICAL DISORDERS” (MapLight Therapeutics, Inc., priority 2021, published 2025).

Key:
[1] = test system: Compound 1 induced salivation; experiment: Fesoterodine dose-response antagonistic effect on Compound 1 induced salivation in anaesthetized rats; format: in vivo, Sprague Dawley rats
Description: (§1) An in vivo primary pharmacology study evaluating the fesoterodine fumarate dose-response antagonistic effect on Compound 1 induced salivation in anaesthetized male Sprague Dawley rats was conducted. […] Intravenous fesoterodine doses were administered at […]. Fesoterodine was dosed 10 minutes prior to dosage of Compound 1. All animals were normal with no observed abnormality detected in clinical signs or behavior. Salivation was measured by using oral dry swab in anesthetized rats with the calculated difference between the dry swab weight and the wet swab weight indicating the weight of saliva produced. Samples were collected post-dosing for one hour at 10-minute intervals.

[2] = Post-procedure plasma exposure (salivation study); format: in vivo, Sprague Dawley rats; conditions: male, Sprague Dawley, rat, in vivo, 1.5 mg/kg, Plasma Concentration 1-Hour Post-procedure (mean value), Compound 1
Description: as §1
At the end of the study period, plasma samples were collected to measure exposure of Compound 1, fesoterodine fumarate, and fesoterodine active metabolite 5-hydroxymethyl tolterodine (5-HMT), also referred to as desfesoterodine, is summarized in Table 2.

in vivo = conditions: cynomolgus monkey, po
Description: The following example characterized the pharmacokinetics (PK) of Compound 1 in Cynomolgus Monkey following single oral (PO) Compound 1 dose administration. The compound was administered via oral gavage at 0.3 mg/kg and 1 mg/kg, formulated as solution in saline. After dosing, plasma was collected to characterize the PK profiles of Compound 1.

[3] = Compound 1 (1.5 mg/kg) IV alone

Cc1noc([C@@]23CNC[C@@H]2C3)n1 [Compound 1, 1-(3-methyl-[1,2,4]oxadiazol-5-yl)-(1R,5R)-3-aza-bicyclo[3.1.0]hexane]
Salivation (mg) (mean value), 10 min [1, 3]: 414.44 mg | Salivation (mg) (mean value), 20 min [1, 3]: 126.95 mg | Salivation (mg) (mean value), 30 min [1, 3]: 59.21 mg | Salivation (mg) (mean value), 40 min [1, 3]: 61.22 mg | Salivation (mg) (mean value), 50 min [1, 3]: 24.79 mg | Salivation (mg) (mean value), 60 min [1, 3]: 22.15 mg | Salivation (mg) (mean value), Total [1, 3]: 708.76 mg | effect on salivation compared to 0.9% saline vehicle control ([1]; Compound 1 IV alone): significant effect in increase in salivation | concentration at 1 h [2]: 608 ng/mL | AUC(0-inf) (in vivo; 0.3 mg/kg): 212 ng·h/mL | AUC(0-t) (in vivo; 0.3 mg/kg): 208 ng·h/mL | Cmax (in vivo; 0.3 mg/kg): 216 ng/mL | Tmax (in vivo; 0.3 mg/kg): 0.417 h | half-life (in vivo; 0.3 mg/kg): 2.82 h | AUC(0-inf) (in vivo; 1 mg/kg): 988 ng·h/mL | AUC(0-t) (in vivo; 1 mg/kg): 982 ng·h/mL | Cmax (in vivo; 1 mg/kg): 686 ng/mL | Tmax (in vivo; 1 mg/kg): 1 h | half-life (in vivo; 1 mg/kg): 2.28 h
